Experimental data published in PubChem BioAssay AID463100 (The Scripps Research Institute Molecular Screening Center, 2010).

System: VIM-2-transformed E. coli growth with imipenem, MIC
Test: growth inhibition of VIM-2-expressing E. coli with imipenem, late-stage follow-up, counter-screen for IMP-1 and VIM-2 inhibitor project, VIM-2-transformed E. coli, imipenem co-treatment (AID 463100)

## [Hg+][c]1ccccc1
  MIC: 0.625 µM

## Cc1cc[c]([Hg+])cc1
  MIC: 0.651 µM

## CC(=O)Nc1cc[c]([Hg+])cc1
  MIC: 2.5 µM

## COc1cccc[c]1[Hg+]
  MIC: 0.781 µM

## O=C(O)c1ccc[c]([Hg+])c1
  MIC: 2.08 µM

## O=C(O)c1cc[c]([Hg][Cl])cc1
  MIC: 9.37 µM
